Patent publication US5977169A, “Substituted tetronic acids useful for treating HIV and other retroviruses” (priority 1997, dated 1999)

Molecular target: T1, HIV-1 protease (Human immunodeficiency virus type 1 group M subtype B, UniProt P04585)
T1 construct: The protease (or proteinase) enzyme, consisting of only 99 amino acids
Assay: In vitro HIV protease inhibitory assay (fluorescently labeled substrate, avidin-polystyrene particles)
Assay type: biochemical
Conditions: for inhibition at 3.3 µM: HIV-1 dose 3.3 μM; for inhibition at 10 µM: HIV-1 dose 10.0 μM; for inhibition at 30 µM: HIV-1 dose 30.0 μM
Outline: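 Biotinylated, FITC-labelled peptide substrate cleaved by HIV-1 protease for 1 h at room temperature in the dark, in 0.1 M sodium acetate pH 5.5 with 1.0 M NaCl and 0.05% NP-40. Product separated from substrate with avidin-polystyrene beads and filtration; fluorescence read as percent inhibition at stated compound concentrations.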

Structure (SMILES) | inhibition at 3.3 µM | inhibition at 10 µM | inhibition at 30 µM | HIV-1 Protease % Inhibition (test compound concentration 3.3 μM) | HIV-1 Protease % Inhibition (test compound concentration 10.0 μM) | HIV-1 Protease % Inhibition (test compound concentration 30.0 μM)
CCCC1(Cc2ccccc2)OC(=O)C(C(c2cccc(NS(=O)(=O)c3cn(C)cn3)c2)C(C)C)=C1O (stereo not drawn) [IX-30] | 97.1% | 96.6% | 94.3% |  |  | 
CCCC1(Cc2ccccc2)OC(=O)C(C(c2cccc(NS(=O)(=O)c3cccc4cccnc34)c2)C(C)C)=C1O (stereo not drawn) [IX-31] | 107% | 114% | 109% |  |  | 
CCCC1(CCC)OC(=O)C(C(c2cccc(NC(=O)OCc3ccccc3)c2)C2CC2)=C1O (stereo not drawn) [IX-32, Carbamic acid, (3-(cyclopropyl(2,5-dihydro-4-hydroxy-2-oxo-5,5-dipropyl-3-furanyl)methyl)phenyl)-, phenylmethyl ester] | 100% | 106% | 111% |  |  | 
CCC1CCCCC12OC(=O)C(C(c1ccccc1)C1CC1)=C2O (stereo not drawn) [IX-34, 1-Oxaspiro[4.5]dec-3-en-2-one, 3-(cyclopropylphenylmethyl)-4-hydroxy-6-ethyl-] | 97% | 98.1% | 93.3% |  |  | 
CCCC1(CCC)OC(=O)C(C(c2cccc(NS(=O)(=O)c3ccc(C#N)cn3)c2)C2CC2)=C1O (stereo not drawn) [IX-35, 5-cyano-2-pyridinesulfonamide, N-(3-(cyclopropyl(2,5-dihydro-4-hydroxy-2-oxo-5,5-dipropyl-3-furanyl)methyl)phenyl)-] | 82.2% | 98.8% | 91.9% |  |  | 
CCCC1(CCC)OC(=O)C(C(c2cccc(NS(=O)(=O)c3ncc[nH]3)c2)C2CC2)=C1O (stereo not drawn) [IX-36] | 37% | 79.6% | 83% |  |  | 
CCCC1(CCC)OC(=O)C(C(c2cccc(NS(=O)(=O)c3nccn3C)c2)C2CC2)=C1O (stereo not drawn) [IX-37, 1-Methyl-1H-imidazole-2-sulfonamide, N-(3-(cyclopropyl(2,5-dihydro-4-hydroxy-2-oxo-5,5-dipropyl-3-furanyl)methyl)phenyl)-] | 99.2% | 100% | 96.7% |  |  | 
CCCC1(CCC)OC(=O)C(C(c2cccc(NS(=O)(=O)c3ccc4ccccc4n3)c2)C2CC2)=C1O (stereo not drawn) [IX-38] | 83% | 85% | 84.8% |  |  | 
CCCC1(CCC)OC(=O)C(C(Cc2ccccc2)c2cccc(NS(=O)(=O)c3ccc(C#N)cc3)c2)=C1O (stereo not drawn) [IX-39, Benzenesulfonamide, 4-cyano-N-(3-(1-(4-hydroxy-2-oxo-5,5-dipropyl-2,5-dihydro-furan-3-yl)-2-phenyl-ethyl)-phenyl)-] | 76.8% | 78.1% | 106% |  |  | 
CCCC1(CCC)OC(=O)C(C(Cc2ccccc2)c2cccc(NS(=O)(=O)c3cn(C)cn3)c2)=C1O (stereo not drawn) [IX-40] | 90.8% | 91.1% | 104% |  |  | 
CCCC1(CCC)OC(=O)C(C(c2cccc(NS(=O)(=O)c3ccc(C#N)cc3)c2)C2CCCC2)=C1O (stereo not drawn) [IX-41] | 97.4% | 96.9% | 101% |  |  | 
CCCC1(CCC)OC(=O)C(C(c2cccc(NS(=O)(=O)c3cn(C)cn3)c2)C2CCCC2)=C1O (stereo not drawn) [IX-42, 1H-Imidazole-4-sulfonamide, N-(3-(cyclopentyl(2,5-dihydro-4-hydroxy-2-oxo-5,5-dipropyl-3-furanyl)methyl)phenyl)-1-methyl-] | 94.5% | 96% | 96.8% |  |  | 
N#Cc1ccc(S(=O)(=O)Nc2cccc(C(C3=C(O)C(Cc4ccccc4)(Cc4ccccc4)OC3=O)C3CC3)c2)cc1 (stereo not drawn) [IX-43] | 98.6% | 96.8% | 99.8% |  |  | 
O=C1OC(Cc2ccccc2)(Cc2ccccc2)C(O)=C1C(c1cccc(NS(=O)(=O)c2ccc(F)cc2)c1)C1CC1 (stereo not drawn) [IX-44] | 90.3% | 92.3% | 80.3% |  |  | 
Cn1cnc(S(=O)(=O)Nc2cccc(C(C3=C(O)C(Cc4ccccc4)(Cc4ccccc4)OC3=O)C3CC3)c2)c1 (stereo not drawn) [IX-45, 1H-Imidazole-4-sulfonamide, N-(3-(cyclopropyl-(5,5-dibenzyl-4-hydroxy-2-oxo-2,5-dihydro-3-furanyl)methyl)phenyl)-1-methyl-] | 91.9% | 94.3% | 80.9% |  |  | 
O=C1OC(Cc2ccccc2)(Cc2ccccc2)C(O)=C1C(c1cccc(NS(=O)(=O)c2cccc3cccnc23)c1)C1CC1 (stereo not drawn) [IX-46, 8 Quinolinesulfonamide, N-(3-(cyclopropyl-(5,5-dibenzyl-4-hydroxy-2-oxo-2,5-dihydro-3-furanyl)methyl)phenyl)-] | 90.3% | 87% | 81.7% |  |  | 
CCCC1(CCC)OC(=O)C(C(c2ccccc2)c2cccc(NS(=O)(=O)c3ccc(C#N)cc3)c2)=C1O (stereo not drawn) [IX-47, Benzenesulfonamide, 4-cyano-N-(3-((5,5-dipropyl-4-hydroxy-2-oxo-2,5-dihydro-3-furanyl)-phenyl-methyl)phenyl)-] | 93.5% | 103% | 88.3% |  |  | 

Structure (SMILES) | inhibition at 3.3 µM | inhibition at 10 µM | inhibition at 30 µM | HIV-1 Protease % Inhibition (test compound concentration 3.3 μM) | HIV-1 Protease % Inhibition (test compound concentration 10.0 μM) | HIV-1 Protease % Inhibition (test compound concentration 30.0 μM)
CCCC1(CCC)OC(=O)C(C(c2ccccc2)c2cccc(NS(=O)(=O)c3cn(C)cn3)c2)=C1O (stereo not drawn) [IX-48, 1H-Imidazole-4-sulfonamide, N-(3-((5,5-dipropyl-4-hydroxy-2-oxo-2,5-dihydro-3 furanyl)-phenyl-methyl)phenyl)-1-methyl-] | 94.5% | 94.7% | 89.1% |  |  | 
CCCC1(CCC)OC(=O)C(C(c2cccc(NS(=O)(=O)c3ccc(C#N)c(C4CCCC4)c3)c2)C2CCCC2)=C1O (stereo not drawn) [IX-49, Benzenesulfonamide, 4-cyano 3-cyclpentyl-N-(3-(cyclopentyl(2,5-dihydro-4-hydroxy-2-oxo-5,5-dipropyl-3-furanyl)methyl)phenyl)-] |  |  |  | 86.97% | 94.94% | 78.56%
CCCC1(CCC)OC(=O)C(C(c2cccc(NS(=O)(=O)c3nnnn3-c3ccccc3)c2)C2CC2)=C1O (stereo not drawn) [IX-50] | 108% | 104% | 106% |  |  | 
CCCC1(CCC)OC(=O)C(C(c2cccc(NS(=O)(=O)c3nc4ccccc4[nH]3)c2)C2CC2)=C1O (stereo not drawn) [IX-51] | 101% | 102% | 106% |  |  | 
CCCC1(CCC)OC(=O)C(C(c2cccc(NS(=O)(=O)c3ccccn3)c2)C2CC2)=C1O (stereo not drawn) [IX-52, 2-Pyridinesulfonamide, N-(3-(cyclopropyl-(4-hydroxy-2-oxo-5,5-dipropyl-2,5-dihydro-furan-3-yl)-methyl)-phenyl)-] | 110% | 104% | 99.9% |  |  | 
Cn1cnc(S(=O)(=O)Nc2cccc(C(C3=C(O)C(Cc4ccccc4)(Cc4ccccc4)OC3=O)C(C)(C)C)c2)c1 (stereo not drawn) [IX-53] | 102% | 104% | 92% |  |  | 
CC(C)(C)C(C1=C(O)C(Cc2ccccc2)(Cc2ccccc2)OC1=O)c1cccc(NS(=O)(=O)c2ccc(C#N)cc2)c1 (stereo not drawn) [IX-54] | 102% | 105% | 92.4% |  |  | 
CCCC1(CCC)OC(=O)C(C(c2cccc(NS(=O)(=O)c3ncccn3)c2)C2CC2)=C1O (stereo not drawn) [IX-55, 2-Pyrimidinesulfonamide, N-(3-(cyclopropyl-(4-hydroxy-2-oxo-5,5-dipropyl-2,5 dihydro-furan-3-yl)-methyl)-phenyl)-] | 93.8% | 93.8% | 96.3% |  |  | 
N#Cc1ccc(S(=O)(=O)Nc2cccc(CC3=C(O)C(Cc4ccccc4)(Cc4ccccc4)OC3=O)c2)cc1 [IX-56] | 81.9% | 101% | 92.5% |  |  | 
O=C1OC2(CCN(C(=O)OCC3c4ccccc4-c4ccccc43)CC2)C(O)=C1C(c1ccccc1)C1CC1 (stereo not drawn) [IX-58, 3-(Cyclopropyl-phenyl-methyl)-4-hydroxy-2-oxo-1-oxa-8-aza-spiro[4.5]dec-3-ene-8-carboxylic acid 9H-fluoren-9-ylmethyl ester] | 79.8% | 86.8% | 87.4% |  |  | 
O=C1OC(=CCCc2ccccc2)C(O)=C1C(c1ccccc1)C1CC1 (stereo not drawn) [JX-1, 3-(Cyclopropyl-phenyl-methyl)-4-hydroxy-5-(3-phenyl-propyl-idene)-5H-furan-2-one] | 94.3% | 103% | 103% |  |  | 
O=C1O/C(=C\c2ccccc2)C(O)=C1C(c1ccccc1)C1CC1 (stereo not drawn) [JX-2, 5-Benzylidene-3-(cyclopropyl-phenyl-methyl)-4-hydroxy-5H-furan-2-one] | 56.9% | 87.7% | 103% |  |  | 
CC/C=C1\OC(=O)C(C(c2ccccc2)C2CC2)=C1O (stereo not drawn) [JX-3, 3-(Cyclopropyl-phenyl-methyl)-4-hydroxy-5-propylidene-5H-furan-2-one] | 43.2% | 65.3% | 96.3% |  |  | 
CCC/C=C1\OC(=O)C(C(c2ccccc2)C2CC2)=C1O (stereo not drawn) [JX-4, 5-Butylidene-3-(cyclopropyl-phenyl-methyl)-4-hydroxy-5H-furan-2-one] | 85.9% | 99.2% | 113% |  |  | 
CC(C)(C)OC(=O)N1CCC2(CC1)OC(=O)C(C(c1ccccc1)C1CC1)=C2O (stereo not drawn) [OX-1, 3-(Cyclopropyl-phenyl-methyl)-4-hydroxy-2-oXo-1-oca-8-aza-spiro[4.5]dec-3-ene-8-carboxylic acid tert-butyl ester] | 78.8% | 89.9% | 100% |  |  | 
O=C1OC2(CCNCC2)C(O)=C1C(c1ccccc1)C1CC1 (stereo not drawn) [OX-2, 3-(Cyclopropyl-phenyl-methy1)-4-hydroxy--1-oXa-8-aza-spiro[4.5]dec-3-en-2-one] | 14.9% | 34.1% | 59% |  |  | 
